The values below come from patent publication US5968838A, “Antiarrhythmic peptide from venom of spider Grammostola spatulata” (priority 1998, dated 1999).

Where two headings read alike, the source gives them in different places. Ends that are not written are not given here.

Common to all, as to type: cell-based, Rat
One assay deals with L-type Ca^2+ channels. The assay is described as follows: Depolarization (high K+) induced Ca2+ increase in GH3 cells, three consecutive depolarizations.
For another assay, the system named is GH3 cells. Nature of the assay: Cell Ca2+ of GH3 cells in isotonic saline (Fura-2). The settings on record: 10 μM peptide. The procedure:
(§1) Rat pituitary cell line GH3 was provided by Dr. S. Simasko, Department of VCAPP, Washington State University, Pullman, Wash., 99164 and the American Type Culture Collection, Rockville, Md. The cells were cultured in standard medium containing 82.5% Ham's F-10 nutrients (Gibco, Gaithersburg, Md.), 15 % heat inhibited horse serum (Gibco) and 2.5% fetal bovine serum (Gibco) at 37C in 10% CO2. Cells were fed twice per week and subcultured once per week. For Fura-2 fluorescence measurements, cells were plated on poly-L-lysine coated glass cover slips at 95% confluency, cultured under normal conditions and used between 3 to 6 days after plating.
Ca^2+ was measured on an SLM AB-2 fluorescence spectrometer (SLM Instruments, Rochester, N.Y.). […]
After loading with Fura-2, the cover slip containing the GH3 cells was mounted in a custom made holder and placed in a quartz cuvette at an angle of 20 degrees to the excitation beam. The cells on the cover slip were exposed to various test solutions and the changes in calcium ion concentration were measured according to the following method. Fluorescence emission was collected from a group of about 10^5 cells located in the excitation path. Excitation beams at 340 nm (Ex340nm) and 380 nm (Ex380 nm) were used and the fluorescence intensities at 510 nm (Em5 10 nm) were monitored. […]

For assay [1], the system named is stretch activated channel. The assay is described as follows: Fura-2 fluorescence ratio measurement of stretch activated channel activity: hypotonic cell swelling induced calcium increase (HICI) in GH3 cells. The method, then: as §1
Ca^2+ was measured on an SLM AB-2 fluorescence spectrometer (SLM Instruments, Rochester, N.Y.). Cells plated on poly-L-lysine coated glass cover slips were loaded with Fura-2 in a loading solution containing 2 micromolar Fura-2/AM (disclosed in Grynkiewicz, G. et al., (1985) Journal of Biological Chemistry 260: 3440-3450) according to the following procedure. Cells were washed twice in phosphate buffered saline (PBS) solution. Cells were then incubated in the loading solution for 30 minutes at 25C. The cells were rinsed twice with PBS and incubated in the culture medium for 30 minutes at 25C. Experiments were performed within 1 hour after loading. […]
After loading, the plated cells were exposed to various hypotonic and isotonic solutions and test solutions containing spider venom. Changes in the calcium ion concentration were measured according to the following method.
After loading with Fura-2, the cover slip containing the GH3 cells was mounted in a custom made holder and placed in a quartz cuvette at an angle of 20 degrees to the excitation beam. The cells on the cover slip were exposed to various test solutions and the changes in calcium ion concentration were measured according to the following method. Fluorescence emission was collected from a group of about 10^5 cells located in the excitation path. Excitation beams at 340 nm (Ex340nm) and 380 nm (Ex380 nm) were used and the fluorescence intensities at 510 nm (Em5 10 nm) were monitored. […] Fluorescence emission data was collected for times up to 600 to 1200 seconds depending on the solution added to the cells.
An increase in the Ca^2+ concentration caused an increase in the fluorescence at Em510 nm/Ex340nm and at the same time, a decrease at Em510/Ex380nm. The ratio of the two (R) was used to calculate the Ca^2+ concentration using the following formula: [formula] where kd is the equilibrium constant; Rmax is the ratio and Fb is the fluorescence intensity at Ex380nm when Fura-2 is saturated with Ca^2+, Rmin is the ratio and Ff is the fluorescence intensity at Ex380nm when Fura-2 is not bound by Ca^2+. […]

Method for L-type Ca^2+ channels: After loading with Fura-2, the cover slip containing the GH3 cells was mounted in a custom made holder and placed in a quartz cuvette at an angle of 20 degrees to the excitation beam. The cells on the cover slip were exposed to various test solutions and the changes in calcium ion concentration were measured according to the following method. Fluorescence emission was collected from a group of about 10^5 cells located in the excitation path. Excitation beams at 340 nm (Ex340nm) and 380 nm (Ex380 nm) were used and the fluorescence intensities at 510 nm (Em5 10 nm) were monitored. […] Fluorescence emission data was collected for times up to 600 to 1200 seconds depending on the solution added to the cells. […]

With `COC(=O)C1=C(C)NC(C)=C(C(=O)OC)C1c1ccccc1[N+](=O)[O-]` [nifedipine], the “block of depolarization induced Ca2+ increase (comparators, stated by contrast)” value in the assay with L-type Ca^2+ channels is recorded as “block”.
For “YCQKWMWTCDEERKCCEGLVCRLWCKKKIEW (cysteine pairing not given here) [α Mechanotoxin]”, the “effect on cell Ca2+ in isotonic saline” value in the assay with GH3 cells is “decreases cell Ca^2+ to levels seen in the absence of extracellular Ca^2+”. In assay [1] (block of HICI in GH3 cells), the association rate entry was “approximately 10^3 m^-1 s^-1” and the dissociation rate was about 0.01 s⁻¹. For the same compound, the Kd in assay [1] (block of HICI in GH3 cells, read-out: equilibrium constant) is about 10 µM. Besides, the “block of hypotonic cell swelling induced calcium increase (HICI)” value in assay [1] (purified peptide, GH3 cells) is reported as “reversibly blocks”.
Regarding `[Gd+3]` [Gd^3+], the “block of depolarization induced Ca2+ increase (comparators, stated by contrast)” value in the assay on L-type Ca^2+ channels (GH3 cells, concentration not given) was “block”.
